In the assay the target is T1, human TLR7 (Homo sapiens, UniProt Q9NYK1).
T1 construct: host or cells: HEK293 (HEK-Blue hTLR7)
T1 sequence (Q9NYK1 27-1049): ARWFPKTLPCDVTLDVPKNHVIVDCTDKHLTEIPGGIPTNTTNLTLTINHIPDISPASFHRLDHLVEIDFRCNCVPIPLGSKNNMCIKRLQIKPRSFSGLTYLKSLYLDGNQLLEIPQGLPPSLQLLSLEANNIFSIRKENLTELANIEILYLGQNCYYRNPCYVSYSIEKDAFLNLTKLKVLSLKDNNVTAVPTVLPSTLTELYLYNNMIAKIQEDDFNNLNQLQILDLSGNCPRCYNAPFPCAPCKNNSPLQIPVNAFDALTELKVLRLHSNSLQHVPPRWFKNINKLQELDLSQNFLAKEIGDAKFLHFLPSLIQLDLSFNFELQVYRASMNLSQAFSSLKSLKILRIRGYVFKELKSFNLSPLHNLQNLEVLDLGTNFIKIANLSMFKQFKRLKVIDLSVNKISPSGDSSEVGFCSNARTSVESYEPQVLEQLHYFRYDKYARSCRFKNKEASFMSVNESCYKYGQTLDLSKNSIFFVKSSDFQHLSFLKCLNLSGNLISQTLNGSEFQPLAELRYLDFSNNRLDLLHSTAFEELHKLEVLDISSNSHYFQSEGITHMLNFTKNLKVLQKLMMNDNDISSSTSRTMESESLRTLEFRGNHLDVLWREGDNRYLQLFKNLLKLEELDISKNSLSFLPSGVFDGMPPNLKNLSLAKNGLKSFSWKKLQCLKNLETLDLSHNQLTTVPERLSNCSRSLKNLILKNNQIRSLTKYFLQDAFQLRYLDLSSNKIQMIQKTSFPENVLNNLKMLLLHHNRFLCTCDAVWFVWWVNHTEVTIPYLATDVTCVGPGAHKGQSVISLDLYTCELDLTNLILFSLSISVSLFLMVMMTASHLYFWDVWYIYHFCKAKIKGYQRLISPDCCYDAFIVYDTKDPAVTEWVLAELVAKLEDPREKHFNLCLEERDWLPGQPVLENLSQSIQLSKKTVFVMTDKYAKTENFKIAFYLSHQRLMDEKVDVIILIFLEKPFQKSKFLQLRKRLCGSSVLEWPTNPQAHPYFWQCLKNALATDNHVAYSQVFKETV
Kind of assay: HEK293-Blue-hTLR-7 cells assay (SEAP reporter, R848 stimulation). The class given is cell-based. Particulars: HEK293-Blue-hTLR7 cells, R848, 20 hrs; read-out: HEK/hTLR7 IC50. The procedure, abridged:
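HEK293-Blue-hTLR7 cells (NF-κB/AP-1-driven SEAP reporter) were stimulated with R848 alongside serially diluted compound at 1% final DMSO for 20 h at 37 °C. Supernatant SEAP was then developed with QUANTI-Blue for 2 h at 37 °C and absorbance read at 620–655 nm; antagonism is measured as reduced reporter signal.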
In the case of `C[C@@H]1CN(c2ccc(C#N)c3ncccc23)C[C@H](CN2CCN(c3ccnc(N4C[C@@H](N)[C@H](F)C4)n3)CC2)O1` [Example 96, 5-[(2S,6R)-2-[[4-[2-[(3R,4R)-3-amino-4-fluoro-pyrrolidin-1-yl]pyrimidin-4-yl]piperazin-1-yl]methyl]-6-methyl-morpholin-4-yl]quinoline-8-carbonitrile], the IC50 stood at 18 nM.
For `C[C@@H]1CN(c2ccc(C#N)n3nccc23)C[C@H](CN2CC(c3ccc(N4CC(C)(N)C4)cc3)C2)O1` [Example 163, 4-[(2S,6R)-2-[[3-[4-(3-amino-3-methyl-azetidin-1-yl)phenyl]azetidin-1-yl]methyl]-6-methyl-morpholin-4-yl]pyrazolo[1,5-a]pyridine-7-carbonitrile], the IC50 is 22 nM.
As for `Cc1cc(N2CCN(C[C@H]3CN(c4ccc(C#N)c5nccnc45)C[C@@H](C)O3)CC2)nc(N2CC(N)C2)n1` [Example 112, 8-[(2S,6R)-2-[[4-[2-(3-aminoazetidin-1-yl)-6-methyl-pyrimidin-4-yl]piperazin-1-yl]methyl]-6-methyl-morpholin-4-yl]quinoxaline-5-carbonitrile], the figure is 4 nM.
As for `[2H]c1ccc2c(N3C[C@H](CN4CCN(c5ccc(N6CC7(CNCCO7)C6)nc5)CC4)O[C@H](C)C3)ccc(C#N)c2n1` [Example 152, 2-deuterio-5-[(2R,6S)-2-methyl-6-[[4-[6-(5-oxa-2,8-diazaspiro[3.5]nonan-2-yl)-3-pyridyl]piperazin-1-yl]methyl]morpholin-4-yl]quinoline-8-carbonitrile], the figure is 15 nM; as for `CO[C@@H]1CN(c2nccc(N3CCN(C[C@H]4CN(c5ccc(C#N)c6ncccc56)C[C@@H](C)O4)CC3)n2)C[C@@H]1N` [Example 92, 5-[(2S,6R)-2-[[4-[2-[(3S,4R)-3-amino-4-methoxy-pyrrolidin-1-yl]pyrimidin-4-yl]piperazin-1-yl]methyl]-6-methyl-morpholin-4-yl]quinoline-8-carbonitrile], 5 nM.
As for `COC1CCN(c2nccc(N3CCN(C[C@H]4CN(c5ccc(C#N)c6ncccc56)C[C@@H](C)O4)CC3)n2)CC1N` (stereo partly drawn) [Example 109, 5-[(2S,6R)-2-[[4-[2-(3-amino-4-methoxy-1-piperidyl)pyrimidin-4-yl]piperazin-1-yl]methyl]-6-methyl-morpholin-4-yl]quinoline-8-carbonitrile], the figure is 16 nM; as for `[2H]c1ccc2c(N3C[C@H](CN4CC(c5ccc(N6C[C@H](OC)[C@@H](N)C6)cc5)C4)O[C@H](C)C3)ccc(C#N)c2n1` [Example 140, 5-[(2S,6R)-2-[[3-[4-[(3S,4S)-3-amino-4-methoxy-pyrrolidin-1-yl]phenyl]azetidin-1-yl]methyl]-6-methyl-morpholin-4-yl]-2-deuterio-quinoline-8-carbonitrile], 22 nM; as for `Cc1cc(N2CC(C)(N)C2)cnc1N1CCN(C[C@H]2CN(c3ccc(C#N)n4ncc(F)c34)C[C@@H](C)O2)CC1` [Example 148, 4-[(2S,6R)-2-[[4-[5-(3-amino-3-methyl-azetidin-1-yl)-3-methyl-2-pyridyl]piperazin-1-yl]methyl]-6-methyl-morpholin-4-yl]-3-fluoro-pyrazolo[1,5-a]pyridine-7-carbonitrile], 56 nM.
In the case of `[2H]c1ccc2c(N3C[C@H](CN4CCN(c5ncc(N6C[C@@H](N)[C@H](OC)C6)cc5C)CC4)O[C@H](C)C3)ccc(C#N)c2n1` [Example 142, 5-[(2S,6R)-2-[[4-[5-[(3R,4R)-3-amino-4-methoxy-pyrrolidin-1-yl]-3-methyl-2-pyridyl]piperazin-1-yl]methyl]-6-methyl-morpholin-4-yl]-2-deuterio-quinoline-8-carbonitrile], the IC50 amounted to 20 nM.
For the compound `Cc1ccc(N2C[C@H](CN3CCN(c4ccnc(N5CC(N)C5)n4)CC3)O[C@H](C)C2)c2nccnc12` [Example 130, 1-[4-[4-[[(2S,6R)-6-methyl-4-(8-methylquinoxalin-5-yl)morpholin-2-yl]methyl]piperazin-1-yl]pyrimidin-2-yl]azetidin-3-amine], the IC50 amounted to 16 nM.
Turning to `C[C@@H]1CN(c2ccc(C#N)c3ncccc23)C[C@H](CN2CCN(c3cnc(N4CCNCC4)cn3)CC2)O1` [Example 6, 5-[(2R,6S)-2-methyl-6-[[4-(5-piperazin-1-ylpyrazin-2-yl)piperazin-1-yl]methyl]morpholin-4-yl]quinoline-8-carbonitrile], the IC50 was 51 nM.
`[2H]c1ccc2c(N3C[C@H](CN4CC(c5ccc(N6CC(C)(N)C6)cc5)C4)O[C@H](C)C3)ccc(C#N)c2n1` [Example 141, 5-[(2S,6R)-2-[[3-[4-(3-amino-3-methyl-azetidin-1-yl)phenyl]azetidin-1-yl]methyl]-6-methyl-morpholin-4-yl]-2-deuterio-quinoline-8-carbonitrile]: the IC50 is 4 nM.
As for `Cc1ccc(N2C[C@H](CN3CCN(c4nccc(N5CCNCC5)n4)CC3)O[C@H](C)C2)c2nccnc12` [Example 116, (2R,6S)-2-methyl-4-(8-methylquinoxalin-5-yl)-6-[[4-(4-piperazin-1-ylpyrimidin-2-yl)piperazin-1-yl]methyl]morpholine], the IC50 came to 21 nM.
`[2H]c1ccc2c(N3C[C@H](CN4CCN(c5ccc(N6CC(C)(N)C6)c(C)n5)CC4)O[C@H](C)C3)ccc(C#N)c2n1` [Example 147, 5-[(2S,6R)-2-[[4-[5-(3-amino-3-methyl-azetidin-1-yl)-6-methyl-2-pyridyl]piperazin-1-yl]methyl]-6-methyl-morpholin-4-yl]-2-deuterio-quinoline-8-carbonitrile]: the IC50 was determined as 53 nM.
Turning to `[2H]c1ccc2c(N3C[C@H](CN4CCN(c5ccc(N6CC7(CN(C)C7)C6)nc5)CC4)O[C@H](C)C3)ccc(C#N)c2n1` [Example 161, 2-deuterio-5-[(2R,6S)-2-methyl-6-[[4-[6-(6-methyl-2,6-diazaspiro[3.3]heptan-2-yl)-3-pyridyl]piperazin-1-yl]methyl]morpholin-4-yl]quinoline-8-carbonitrile], the IC50 was 8 nM.
As for `Cc1cc(N2C[C@@H](N)[C@](C)(O)C2)nc(N2CCN(C[C@H]3CN(c4ccc(C#N)c5nccnc45)C[C@@H](C)O3)CC2)n1` [Example 125, 8-[(2S,6R)-2-[[4-[4-[(3R,4R)-4-amino-3-hydroxy-3-methyl-pyrrolidin-1-yl]-6-methyl-pyrimidin-2-yl]piperazin-1-yl]methyl]-6-methyl-morpholin-4-yl]quinoxaline-5-carbonitrile], the IC50 was determined as 47 nM.
In the case of `[2H]c1ccc2c(N3C[C@H](CN4CCN(c5ccc(N6C[C@@H]7C[C@H]6CN7)nc5)CC4)O[C@H](C)C3)ccc(C#N)c2n1` [Example 151, 2-deuterio-5-[(2S,6R)-2-[[4-[6-[(1S,4S)-2,5-diazabicyclo[2.2.1]heptan-2-yl]-3-pyridyl]piperazin-1-yl]methyl]-6-methyl-morpholin-4-yl]quinoline-8-carbonitrile], the IC50 worked out at 35 nM.
Consider `Cc1cc(N2CC(N)C2)nc(N2CCN(C[C@H]3CN(c4ccc(C#N)c5nccnc45)C[C@@H](C)O3)CC2)n1` [Example 123, 8-[(2S,6R)-2-[[4-[4-(3-aminoazetidin-1-yl)-6-methyl-pyrimidin-2-yl]piperazin-1-yl]methyl]-6-methyl-morpholin-4-yl]quinoxaline-5-carbonitrile], for which the IC50 stood at 3 nM.
Consider `Cc1ccc(N2C[C@H](CN3CCN(c4ccnc(N5CCNCC5)n4)CC3)O[C@H](C)C2)c2nccnc12` [Example 117, (2R,6S)-2-methyl-4-(8-methylquinoxalin-5-yl)-6-[[4-(2-piperazin-1-ylpyrimidin-4-yl)piperazin-1-yl]methyl]morpholine], for which the IC50 was 13 nM.
For `CO[C@H]1CN(c2cc(C)nc(N3CCN(C[C@H]4CN(c5ccc(C#N)c6nccnc56)C[C@@H](C)O4)CC3)n2)C[C@H]1N` [Example 122, 8-[(2S,6R)-2-[[4-[4-[(3R,4S)-3-amino-4-methoxy-pyrrolidin-1-yl]-6-methyl-pyrimidin-2-yl]piperazin-1-yl]methyl]-6-methyl-morpholin-4-yl]quinoxaline-5-carbonitrile], the IC50 came to 5 nM.

Values taken from patent US20210395239A1 (Hoffmann-La Roche Inc., priority 2018, published 2021).
